Values quoted from earlier work as cited in publication PMC8583936, “Machine Learning Assisted Approach for Finding Novel High Activity Agonists of Human Ectopic Olfactory Receptors” (International Journal of Molecular Sciences, 2021).
Where two headings read alike, the source gives them in different places.

Columns and labels:
OR1A1 = target: T1, OR1A1 (Homo sapiens, UniProt Q9P1Q5); details: cited from earlier work
T1 sequence (Q9P1Q5 1-309): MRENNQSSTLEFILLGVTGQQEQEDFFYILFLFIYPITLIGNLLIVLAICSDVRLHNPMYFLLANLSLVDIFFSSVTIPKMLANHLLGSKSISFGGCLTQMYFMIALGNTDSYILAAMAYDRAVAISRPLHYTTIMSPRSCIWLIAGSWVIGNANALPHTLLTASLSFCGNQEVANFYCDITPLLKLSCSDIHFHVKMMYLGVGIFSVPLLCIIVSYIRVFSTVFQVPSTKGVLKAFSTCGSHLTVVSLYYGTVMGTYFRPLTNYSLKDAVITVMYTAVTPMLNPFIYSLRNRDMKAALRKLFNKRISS

OR2W1 = target: T2, OR2W1 (Homo sapiens, UniProt Q9Y3N9); details: cited from earlier work
T2 sequence (Q9Y3N9 1-320): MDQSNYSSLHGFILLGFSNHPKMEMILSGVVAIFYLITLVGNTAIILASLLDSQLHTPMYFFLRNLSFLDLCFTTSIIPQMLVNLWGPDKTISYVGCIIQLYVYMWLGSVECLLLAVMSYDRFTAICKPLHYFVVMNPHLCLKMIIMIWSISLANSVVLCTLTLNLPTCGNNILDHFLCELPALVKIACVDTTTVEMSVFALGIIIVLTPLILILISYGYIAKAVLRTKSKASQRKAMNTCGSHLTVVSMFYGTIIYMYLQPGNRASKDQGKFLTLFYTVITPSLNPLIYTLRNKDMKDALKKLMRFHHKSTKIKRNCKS

[1] = Table S1, ref Supplement references [1]-[9] as printed after each odorant name
[2] = Table S2, ref Supplement references [2]-[12] as printed after each odorant name

Row | SMILES | Class (agonist / non-agonist / conflicting info.) for OR1A1 (OR1A1; [1]) | Class (agonist / non-agonist / antagonist / conflicting info.) for OR2W1 (OR2W1; [2]) | Class (agonist / non-agonist / conflicting info.) for OR1A1 (OR1A1) | Class (agonist / non-agonist / antagonist / conflicting info.) for OR2W1 (OR2W1)
1 | C=CC(O)CCCCC (racemic) [(R/S)-octen-3-ol] | Agonist | Agonist | – | –
2 | CCCCC1CCC(=O)O1 (racemic) [(R/S)-γ-Octalactone] | Non-agonist | Agonist | – | –
3 | CCC(C(=O)O)c1ccccc1 (single isomer, unassigned; (+)) [(+)-2-Phenylbutyric acid] | Non-agonist | Non-agonist | – | –
4 | CC1CC[C@H](C(C)C)[C@@H](O)C1 (single isomer, unassigned; (+)) [(+)-Menthol] | Non-agonist | Conflicting info. | – | –
5 | CCC(C(=O)O)c1ccccc1 (single isomer, unassigned; (-)) [(-)-2-Phenylbutyric acid] | Non-agonist | Non-agonist | – | –
6 | C=C(C)C1CC=C(C)C(=O)C1 (single isomer, unassigned; (-)) [(-)-Carvone] | Agonist | Agonist | – | –
7 | CC1=CCC2CC1C2(C)C (single isomer, unassigned; (-)) [(-)-alpha-Pinene] | Non-agonist | Non-agonist | – | –
8 | C=C1CCC2CC1C2(C)C (single isomer, unassigned; (-)) [(-)-beta-Pinene] | Non-agonist | Non-agonist | – | –
9 | CCCCCCCC(OC)OC [1,1-dimethoxy-octane] | Non-agonist | Agonist | – | –
10 | CC(S)CCS (centres unmarked) [1,3-butane dithiol] | Non-agonist | Non-agonist | – | –
11 | CC12CCC(CC1)C(C)(C)O2 [1,8-cineole] | Non-agonist | Non-agonist | – | –
12 | CCCCO [1-butanol] | Non-agonist | Non-agonist | – | –
13 | CCCCCCCCCCO [1-decanol] | Agonist | Agonist | – | –
14 | C=CC(=O)CCCCC [1-octen-3-one] | Conflicting info. | Non-agonist | – | –
15 | CC1=CCC(C(C)(C)S)CC1 (centres unmarked) [1-p-Menthene-8-thiol] | Non-agonist | Non-agonist | – | –
16 | CCCO [1-propanol] | Non-agonist | Non-agonist | – | –
17 | CCCCCCCCCCCO [1-undecanol] | Non-agonist | Non-agonist | – | –
18 | CC(=O)c1ccccc1N [2'-aminoacetophenone] | – | – | Non-agonist | Non-agonist
19 | CCc1ncc(C)nc1CC [2,3-dietyl-5-methylpyrazine] | Non-agonist | Non-agonist | – | –
20 | CCCC(=O)C(C)=O [2,3-hexanedione] | Non-agonist | Agonist | – | –
21 | CCCCCCCCCC(=O)O [Decanoic acid] | – | Agonist | – | –
22 | CCCCCCCS [Heptane-1-thiol] | – | Agonist | – | –
23 | CCCCCCS [Hexane-1-thiol] | – | – | – | Agonist
24 | CCCCCS [Pentane-1-thiol] | – | Agonist | – | –
